According to PMC5653438 (Molecular microbiology, 2017):
Where a name gives a salt, the structure may show the parent alone.

What was measured:
[1] = ref Lukesh et al., 2012; cited from earlier work
PfLipL1 [2] = target: T1, PfLipL1 (Plasmodium falciparum, UniProt Q8IEG9); test: biochemical; format: binding; conditions: KD TSA, Kd calculated at 37 °C
malaria parasite = conditions: treatment with lipoate analogs; ref Allary et al., 2007; Afanador et al., 2014; cited from earlier work
PfLipL1 [3] = target: T1, PfLipL1; test: biochemical; format: binding; conditions: KD ITC
[4] = reducing conditions, + TCEP (5 mM)
[5] = non-reducing conditions (no reducing agent)

T1 sequence (Q8IEG9 19-408): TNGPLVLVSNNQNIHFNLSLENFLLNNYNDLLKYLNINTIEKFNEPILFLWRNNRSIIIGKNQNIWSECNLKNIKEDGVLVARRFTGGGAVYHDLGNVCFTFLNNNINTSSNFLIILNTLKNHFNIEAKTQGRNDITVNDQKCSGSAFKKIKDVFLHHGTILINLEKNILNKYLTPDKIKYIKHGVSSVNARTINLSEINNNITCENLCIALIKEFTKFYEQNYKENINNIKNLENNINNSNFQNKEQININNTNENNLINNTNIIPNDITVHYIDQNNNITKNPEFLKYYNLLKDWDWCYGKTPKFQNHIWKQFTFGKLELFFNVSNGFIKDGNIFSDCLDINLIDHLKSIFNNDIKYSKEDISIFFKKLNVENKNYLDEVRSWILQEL

| SMILES | Kd (PfLipL1 [2]; [4]) [nM] | Kd (PfLipL1 [2]; [5]) [nM] | other results |
| --- | --- | --- | --- |
| O[C@@H](CS)[C@@H](O)CS (racemic) [DTT, dithiothreitol] | – | – | pKa [1]: 9.3 |
| O=C(O)CCCC[C@@H](S)CCS (racemic) [Lipoate + TCEP, dihydrolipoate] | 94000 ± 30000 | – | – |
| O=C(O)CCCCC(Cl)CCCl (stereo not shown) [6,8-diClO, 6,8-dichlorooctanoate] | 18000 ± 1000 | 13000 ± 4000 | parasite cell growth inhibition (malaria parasite): causes parasite cell growth inhibition |
| Nc1ncnc2c1ncn2[C@@H]1O[C@H](COP(=O)(O)OC(=O)CCCCC(Cl)CCCl)[C@@H](O)[C@H]1O (stereo partly drawn) [6,8-diClO-AMP, 6,8-dichlorooctanoic (((2R,3S,4R,5R)-5-(6-amino-9H-purin-9-yl)-3,4-dihydroxytetrahydrofuran-2-yl)methylphosphoric) anhydride monosodium salt] | 250 ± 20 | 90 ± 30 | Kd (PfLipL1 [3]; non-reducing conditions): 100 ± 30 nM; Kd (PfLipL1 [3]; reducing conditions, + TCEP): 500 ± 200 nM |
| O=C(O)CCCCCCCBr [8-BrO, 8-bromooctanoate] | – | – | parasite cell growth inhibition (malaria parasite): causes parasite cell growth inhibition |
| Nc1ncnc2c1ncn2[C@@H]1O[C@H](COP(=O)(O)OC(=O)CCCC[C@@H](S)CCS)[C@@H](O)[C@H]1O [Lipoyl-AMP + TCEP, dihydrolipoyl-AMP] | 5800 ± 400 | – | – |
| Nc1ncnc2c1ncn2[C@@H]1O[C@H](COP(=O)(O)OC(=O)CCCC[C@@H]2CCSS2)[C@@H](O)[C@H]1O [Lipoyl-AMP, (R)-5-(1,2-dithiolan-3-yl)pentanoic (((2R,3S,4R,5R)-5-(6-amino-9H-purin-9-yl)-3,4-dihydroxytetrahydrofuran-2-yl)methylphosphoric) anhydride monosodium salt] | – | 20 ± 5 | Kd (PfLipL1 [3]; non-reducing conditions): 65 ± 5 nM |
